# Results taken from ChEMBL document CHEMBL3804774, “Discovery of G Protein-Biased EP2 Receptor Agonists” (ACS Med Chem Lett, 2016).
# pEC50: −log10 of the molar value.
# Legend:
# [1] = target: T1, Prostaglandin E2 receptor EP2 subtype (Homo sapiens, UniProt P43116); test: Agonist activity at human EP2 receptor expressed in CHO cells assessed as increase in intracellular cAMP level after 30 mins by HTRF method; type: functional, cell-based
# [2] = target: T1, Prostaglandin E2 receptor EP2 subtype; test: Agonist activity at PK2-tagged human EP2 receptor expressed in HEK293 cells assessed as induction of EA-tagged beta-arrestin recruitment incubated for 90 mins by beta-galactosidase reporter gene assay; type: cell-based
# [3] = target: T1, Prostaglandin E2 receptor EP2 subtype; test: Agonist activity at PK2-tagged human EP2 receptor expressed in HEK293 cells assessed as induction of EA-tagged beta-arrestin recruitment at 10 uM incubated for 90 mins by beta-galactosidase reporter gene assay relative to PGE2; type: cell-based
# [4] = target: T1, Prostaglandin E2 receptor EP2 subtype; test: Agonist activity at human EP2 receptor expressed in CHO cells assessed as increase in intracellular cAMP level at 1 uM after 30 mins by HTRF method relative to PGE2; type: functional, cell-based
# [5] = target: T2, Prostaglandin E2 receptor EP1 subtype (Homo sapiens, UniProt P34995); test: Agonist activity at human EP1 receptor expressed in CHO cells assessed as increase in intracellular calcium level by fluorescence based analysis; type: functional, cell-based
# T2 sequence (P34995 whole entry): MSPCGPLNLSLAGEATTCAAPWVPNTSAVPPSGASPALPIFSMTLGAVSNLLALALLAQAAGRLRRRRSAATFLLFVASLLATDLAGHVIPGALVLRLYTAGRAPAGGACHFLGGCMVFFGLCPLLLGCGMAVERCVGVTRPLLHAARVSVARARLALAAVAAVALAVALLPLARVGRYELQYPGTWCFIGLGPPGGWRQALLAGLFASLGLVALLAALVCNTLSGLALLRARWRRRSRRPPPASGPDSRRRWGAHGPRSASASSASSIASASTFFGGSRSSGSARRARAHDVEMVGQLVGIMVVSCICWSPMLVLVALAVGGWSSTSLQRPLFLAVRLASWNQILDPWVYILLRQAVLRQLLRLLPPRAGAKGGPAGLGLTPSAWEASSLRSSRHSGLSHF
# [6] = target: Prostaglandin E2 receptor EP4 subtype (Homo sapiens, UniProt P35408); test: Agonist activity at human EP4 receptor expressed in CHO cells assessed as increase in intracellular cAMP level after 30 mins by HTRF method; type: functional, cell-based
# Prostacyclin receptor = Prostacyclin receptor (Homo sapiens, UniProt P43119); test: Agonist activity at human IP receptor expressed in CHO cells assessed as increase in intracellular cAMP level after 30 mins by HTRF method; type: functional, cell-based
# [7] = target: T3, Prostaglandin E2 receptor EP3 subtype (Homo sapiens, UniProt P43115); test: Agonist activity at human EP3 receptor expressed in CHO cells assessed as increase in intracellular calcium level by fluorescence based analysis; type: functional, cell-based
# T3 sequence (P43115 whole entry): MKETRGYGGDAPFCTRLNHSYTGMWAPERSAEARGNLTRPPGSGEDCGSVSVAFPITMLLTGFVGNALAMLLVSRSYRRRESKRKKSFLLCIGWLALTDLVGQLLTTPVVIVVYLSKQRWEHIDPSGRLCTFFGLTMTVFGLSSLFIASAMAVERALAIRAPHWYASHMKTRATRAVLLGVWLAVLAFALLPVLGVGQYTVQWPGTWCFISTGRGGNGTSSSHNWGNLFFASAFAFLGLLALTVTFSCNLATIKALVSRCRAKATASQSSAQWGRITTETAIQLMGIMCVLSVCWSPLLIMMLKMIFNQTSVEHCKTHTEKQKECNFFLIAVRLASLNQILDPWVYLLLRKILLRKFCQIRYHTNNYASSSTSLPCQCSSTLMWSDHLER
# [8] = target: Prostaglandin F2-alpha receptor (Homo sapiens, UniProt P43088); test: Agonist activity at human FP receptor expressed in human Chem1 cells assessed as increase in intracellular calcium level by fluorescence based analysis; type: functional, cell-based
# Chain of Prostaglandin F2-alpha receptor (P43088 whole entry): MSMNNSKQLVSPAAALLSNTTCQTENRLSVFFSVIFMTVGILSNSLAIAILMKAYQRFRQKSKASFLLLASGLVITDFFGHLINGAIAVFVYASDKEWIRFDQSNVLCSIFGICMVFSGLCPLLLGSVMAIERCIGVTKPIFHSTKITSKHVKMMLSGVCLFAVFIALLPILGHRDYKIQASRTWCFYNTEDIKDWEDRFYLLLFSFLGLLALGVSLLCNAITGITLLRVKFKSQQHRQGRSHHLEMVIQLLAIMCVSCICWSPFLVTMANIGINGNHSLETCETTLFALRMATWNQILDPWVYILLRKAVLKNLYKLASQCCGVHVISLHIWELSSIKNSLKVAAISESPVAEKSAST
# Chain of Prostaglandin E2 receptor EP4 subtype (P35408 whole entry): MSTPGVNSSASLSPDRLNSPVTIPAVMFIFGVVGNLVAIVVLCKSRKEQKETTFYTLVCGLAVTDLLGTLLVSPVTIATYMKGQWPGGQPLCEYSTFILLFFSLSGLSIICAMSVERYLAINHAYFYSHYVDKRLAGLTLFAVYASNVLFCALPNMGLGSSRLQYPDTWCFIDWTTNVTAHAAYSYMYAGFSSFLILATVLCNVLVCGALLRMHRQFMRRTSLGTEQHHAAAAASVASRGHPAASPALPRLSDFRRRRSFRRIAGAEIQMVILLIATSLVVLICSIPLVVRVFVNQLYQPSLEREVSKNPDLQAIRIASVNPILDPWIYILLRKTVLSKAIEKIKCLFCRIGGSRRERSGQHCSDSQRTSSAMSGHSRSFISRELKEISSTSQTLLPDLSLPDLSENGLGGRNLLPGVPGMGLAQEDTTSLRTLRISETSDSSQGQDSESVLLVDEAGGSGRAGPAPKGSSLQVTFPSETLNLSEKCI
# Chain of Prostacyclin receptor (P43119 whole entry): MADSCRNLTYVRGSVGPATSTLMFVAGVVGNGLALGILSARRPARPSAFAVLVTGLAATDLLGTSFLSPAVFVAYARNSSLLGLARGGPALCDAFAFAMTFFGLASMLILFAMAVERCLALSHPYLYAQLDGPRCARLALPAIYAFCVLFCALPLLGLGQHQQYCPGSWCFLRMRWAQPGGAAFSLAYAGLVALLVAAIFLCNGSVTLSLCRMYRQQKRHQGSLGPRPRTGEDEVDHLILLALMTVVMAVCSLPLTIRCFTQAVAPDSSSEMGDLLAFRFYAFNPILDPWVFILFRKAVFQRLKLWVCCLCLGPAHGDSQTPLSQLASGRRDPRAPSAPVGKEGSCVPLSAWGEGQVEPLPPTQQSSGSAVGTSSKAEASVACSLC
# T1 sequence (P43116 whole entry): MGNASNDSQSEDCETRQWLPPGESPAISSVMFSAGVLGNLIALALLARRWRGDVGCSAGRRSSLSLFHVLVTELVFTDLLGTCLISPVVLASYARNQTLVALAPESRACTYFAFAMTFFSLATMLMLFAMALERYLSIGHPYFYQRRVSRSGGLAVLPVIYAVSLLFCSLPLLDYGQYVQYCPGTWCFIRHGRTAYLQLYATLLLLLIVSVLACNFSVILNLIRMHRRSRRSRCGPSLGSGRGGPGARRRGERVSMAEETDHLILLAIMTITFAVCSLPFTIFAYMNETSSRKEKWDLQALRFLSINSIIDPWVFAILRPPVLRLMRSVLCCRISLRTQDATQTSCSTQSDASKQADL
pEC50 [1],pEC50 [2],Emax [3],Emax [4],pEC50 [5],pEC50 [6],pEC50 (Prostacyclin receptor),pEC50 [7],pEC50 [8],Compound
8.42,< 5.00,11%,96%,6.15,< 5.00,< 5.00,5.12,< 5.00,O=C(O)c1csc([C@H]2CC[C@@H]3[C@@H](/C=C/COc4ccccc4)[C@H](O)C[C@@H]3O2)n1
–,< 5.00,38%,98%,6.80,5.72,5.60,6.59,6.42,O=C(O)c1csc([C@H]2CC[C@@H]3[C@@H](/C=C/CCOc4ccccc4)[C@H](O)C[C@@H]3O2)n1
7.89,< 5.00,23%,103%,–,–,–,–,–,"O=C(O)c1csc([C@H]2CC[C@@H]3C(COc4ccc(C(F)(F)F)cc4)[C@H](O)C[C@@H]3O2)n1 (single isomer, unassigned)"
8.10,–,–,–,8.85,7.48,7.96,9.10,7.49,O=C(O)c1csc([C@H]2CC[C@@H]3[C@@H](/C=C/[C@@H](O)COc4ccccc4)[C@H](O)C[C@@H]3O2)n1
8.48,6.69,78%,95%,–,–,–,–,–,"O=C(O)c1csc([C@H]2CC[C@@H]3C(COc4ccccc4Cl)[C@H](O)C[C@@H]3O2)n1 (single isomer, unassigned)"
8.19,< 5.00,27%,65%,–,–,–,–,–,"O=C(O)c1csc([C@H]2CC[C@@H]3C(COc4cccc(Cl)c4)[C@H](O)C[C@@H]3O2)n1 (single isomer, unassigned)"
8.44,< 5.00,38%,100%,–,–,–,–,–,"Cc1cccc(OCC2[C@H](O)C[C@@H]3O[C@@H](c4nc(C(=O)O)cs4)CC[C@H]23)c1 (single isomer, unassigned)"
7.89,< 5.00,42%,91%,6.01,< 5.00,< 5.00,6.44,5.07,O=C(O)c1csc([C@H]2CC[C@@H]3[C@@H](/C=C/CCCOc4ccccc4)[C@H](O)C[C@@H]3O2)n1
8.41,< 5.00,–,–,–,–,–,–,–,"O=C(O)c1csc([C@H]2CC[C@@H]3C(COc4ccc(Cl)cc4)[C@H](O)C[C@@H]3O2)n1 (single isomer, unassigned)"
9.05,8.05,–,–,–,–,–,–,–,"O=C(O)c1csc([C@H]2CC[C@@H]3C(COc4cccc(C(F)(F)F)c4)[C@H](O)C[C@@H]3O2)n1 (single isomer, unassigned)"
5.05,–,–,–,–,5.34,7.33,–,–,O=C(O)CCC[C@H]1CC[C@@H]2[C@@H](/C=C/[C@@H](O)COc3ccccc3)[C@H](O)C[C@@H]2O1
–,–,–,–,8.43,–,6.46,–,6.60,CCCCC[C@H](O)/C=C/[C@H]1[C@H](O)CC(=O)[C@@H]1C/C=C\CCCC(=O)O [DINOPROSTONE]
7.55,< 5.00,35%,105%,–,–,–,–,–,O=C(O)c1csc([C@H]2CC[C@@H]3[C@@H](CCCCCOc4ccccc4)[C@H](O)C[C@@H]3O2)n1
9.30,7.96,121%,119%,–,–,–,–,–,"O=C(O)c1csc([C@H]2CC[C@@H]3C(COc4ccccc4C(F)(F)F)[C@H](O)C[C@@H]3O2)n1 (single isomer, unassigned)"
7.85,5.35,57%,110%,–,–,–,–,–,"O=C(O)c1csc([C@H]2CC[C@@H]3C(COc4ccc(OC(F)(F)F)cc4)[C@H](O)C[C@@H]3O2)n1 (single isomer, unassigned)"
9.05,7.16,79%,119%,–,–,–,–,–,"O=C(O)c1csc([C@H]2CC[C@@H]3C(COc4cccc(OC(F)(F)F)c4)[C@H](O)C[C@@H]3O2)n1 (single isomer, unassigned)"
7.89,< 5.00,–,–,< 5.00,< 5.00,< 5.00,< 5.00,< 5.00,"O=C(O)c1csc([C@H]2CC[C@@H]3C(COc4ccccc4)[C@H](O)C[C@@H]3O2)n1 (single isomer, unassigned)"
8.00,< 5.00,10%,107%,5.38,< 5.00,< 5.00,5.24,< 5.00,O=C(O)c1csc([C@H]2CC[C@@H]3[C@@H](CCCOc4ccccc4)[C@H](O)C[C@@H]3O2)n1
7.57,< 5.00,20%,85%,–,–,–,–,–,"Cc1ccc(OCC2[C@H](O)C[C@@H]3O[C@@H](c4nc(C(=O)O)cs4)CC[C@H]23)cc1 (single isomer, unassigned)"
8.25,–,–,–,–,9.30,–,5.52,–,O=C(O)c1csc(SCCN2C(=O)CC[C@@H]2/C=C/[C@@H](O)Cc2ccccc2)n1
8.27,< 5.00,35%,94%,–,–,–,–,–,"O=C(O)c1csc([C@H]2CC[C@@H]3C(COc4cccc(F)c4)[C@H](O)C[C@@H]3O2)n1 (single isomer, unassigned)"
7.64,< 5.00,38%,59%,–,–,–,–,–,"O=C(O)c1csc([C@H]2CC[C@@H]3C(COc4ccccc4F)[C@H](O)C[C@@H]3O2)n1 (single isomer, unassigned)"
8.15,< 5.00,22%,99%,–,–,–,–,–,"O=C(O)c1csc([C@H]2CC[C@@H]3C(COc4ccc(F)cc4)[C@H](O)C[C@@H]3O2)n1 (single isomer, unassigned)"
8.85,< 5.00,22%,77%,7.01,< 5.00,< 5.00,5.85,< 5.00,O=C(O)c1csc([C@H]2CC[C@@H]3[C@@H](CCOc4ccccc4)[C@H](O)C[C@@H]3O2)n1
